Strand notation (5' to 3'): a small letter for the sugar, then the base; units joined by * are phosphorothioate-linked, units joined directly phosphodiester-linked; [ ] holds rarer units or linkages, { } end groups; capitals alone tell only the bases. e = 2'-O-(2-methoxyethyl) (MOE); [5mC] = 5-methylcytosine; d = 2'-deoxy (DNA)
Key:
Format in all cases: cell-based
[1] = tested on: human Factor 11 mRNA; assay: Dose-dependent inhibition of human Factor 11 in HepG2 cells, electroporation 0.7-20 uM (Example 4); details: for percent inhibition of Factor 11 at 0.7 μM / percent inhibition of Factor 11 at 2.2 μM / percent inhibition of Factor 11 at 6.7 μM / percent inhibition of Factor 11 at 20 μM: relative to untreated control cells
Procedure: (§1) The gapmers were also transfected via electroporation and their dose dependent inhibition of human Factor 11 mRNA was measured. Cells were plated at a density of 20,000 cells per well and transfected via electroporation with 0.7 μM, 2.2 μM, 6.7 μM, and 20 μM concentrations of antisense oligonucleotide, as specified in Table 10. After a treatment period of approximately 16 hours, RNA was isolated from the cells and Factor 11 mRNA levels were measured by quantitative real-time PCR. Human Factor 11 primer probe set RTS 2966 was used to measure mRNA levels. Factor 11 mRNA levels were adjusted according to total RNA content, as measured by RIBOGREEN. Results are presented as percent inhibition of Factor 11, relative to untreated control cells.

[2] = tested on: human Factor 11 mRNA; assay: Dose-dependent inhibition of human Factor 11 in HepG2 cells, lipofectin 9.375-75 nM (Example 4); details: for percent inhibition of Factor 11 at 9.375 nM / percent inhibition of Factor 11 at 18.75 nM / percent inhibition of Factor 11 at 37.5 nM / percent inhibition of Factor 11 at 75 nM: relative to untreated control cells
Procedure: as §1, with “Cells” for “The gapmers were also transfected via electroporation and their dose dependent inhibition of human Factor 11 mRNA was measured. Cells”, “10,000” for “20,000”, “using lipofectin reagent” for “via electroporation”, “9.375 nM, 18.75 nM, 37.5 nM” for “0.7 μM, 2.2 μM, 6.7 μM,”, “75 nM” for “20 μM”, “9.” for “10.”

[3] = tested on: human Factor 11 mRNA; assay: Antisense inhibition of human Factor 11 in HepG2 cells by microwalk gapmers, lipofectin, 75 nM (Example 3)
Method in brief: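 HepG2 cells (10,000/well) were transfected via lipofectin with 75 nM 20-mer MOE gapmers (phosphorothioate, 5-methyl-C) for about 24 h. Factor 11 mRNA was measured by qRT-PCR, normalized to RIBOGREEN total RNA, and given as percent inhibition versus untreated cells.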

[4] = HepG2, lipofectin, ~24 h, gapmers targeted to nucleobases 656 to 704 of SEQ ID NO: 1

Row | Substance | IC50 [1] | percent inhibition of Factor 11 at 0.7 μM [1] | percent inhibition of Factor 11 at 2.2 μM [1] | percent inhibition of Factor 11 at 6.7 μM [1] | percent inhibition of Factor 11 at 20 μM [1] | IC50 [2] | percent inhibition of Factor 11 at 9.375 nM [2] | percent inhibition of Factor 11 at 18.75 nM [2] | percent inhibition of Factor 11 at 37.5 nM [2] | percent inhibition of Factor 11 at 75 nM [2] | % inhibition [3, 4] | % inhibition ([3]; HepG2 cells, lipofectin, gapmers targeted to nucleobases 1062 to 1091 of SEQ ID NO: 1) | % inhibition ([3]; HepG2 cells, lipofectin, gapmers targeted to nucleobases 1018 to 1042 of SEQ ID NO: 1) | % inhibition ([3]; HepG2 cells, lipofectin, gapmers targeted to nucleobases 1275 to 1318 of SEQ ID NO: 1)
1 | 416827 (antisense eT*eA*eT*eG*e[5mC]*d[5mC]*d[5mC]*dT*dT*d[5mC]*dA*dT*dG*dT*d[5mC]*eT*eA*eG*eG*eT) [compound 416827] | 1100 nM | 37% | 68% | 87% | 92% | 23 nM | 31% | 42% | 62% | 77% | 93% | – | – | –
2 | 416842 (antisense eT*eG*eA*eG*eA*dT*dT*d[5mC]*dT*dT*dT*dG*dG*dG*d[5mC]*e[5mC]*eA*eT*eT*e[5mC]) [compound 416842] | 5000 nM | 0% | 10% | 66% | 92% | 31 nM | 18% | 33% | 62% | 71% | – | 94% | – | –
3 | 416878 (antisense eG*eG*eT*d[5mC]*d[5mC]*dA*d[5mC]*dA*dT*dA*dA*dA*dT*dG*dT*d[5mC]*dT*eT*eT*eG) [compound 416878] | 4300 nM | 1% | 26% | 75% | 85% | 27 nM | 22% | 34% | 60% | 82% | 95% | – | – | –
4 | 416895 (antisense eT*eA*eT*dG*d[5mC]*d[5mC]*d[5mC]*dT*dT*d[5mC]*dA*dT*dG*dT*d[5mC]*dT*dA*eG*eG*eT) [compound 416895] | 3000 nM | 0% | 62% | 70% | 91% | 15 nM | 39% | 57% | 66% | 71% | 95% | – | – | –
5 | 416896 (antisense eT*eT*eA*dT*dG*d[5mC]*d[5mC]*d[5mC]*dT*dT*d[5mC]*dA*dT*dG*dT*d[5mC]*dT*eA*eG*eG) [compound 416896] | 3200 nM | 12% | 35% | 81% | 89% | 27 nM | 22% | 39% | 57% | 81% | 95% | – | – | –
6 | 416908 (antisense eG*e[5mC]*eA*dA*d[5mC]*d[5mC]*dG*dG*dG*dA*dT*dG*dA*dT*dG*dA*dG*eT*eG*e[5mC]) [compound 416908] | 2800 nM | 7% | 58% | 74% | 89% | 16 nM | 36% | 57% | 67% | 76% | – | – | 98% | –
7 | 416922 (antisense eG*e[5mC]*eA*d[5mC]*dA*dG*dT*dT*dT*d[5mC]*dT*dG*dG*d[5mC]*dA*dG*dG*e[5mC]*e[5mC]*eT) [compound 416922] | 1700 nM | 35% | 51% | 77% | 91% | 36 nM | 14% | 25% | 49% | 75% | – | – | – | 94%

Reference: patent publication US20230263822A1, “MODULATION OF FACTOR 11 EXPRESSION” (Ionis Pharmaceuticals, Inc., priority 2008, published 2023)
